Patent US10632125B2, “MTH1 inhibitors for treatment of inflammatory and autoimmune conditions” (THOMAS HELLEDAYS STIFTELSE FÖR MEDICINSK FORSKNING, priority 2014, dated 2020)

Molecular target: MTH1 (Homo sapiens, UniProt P36639)
Experiment: MTH1 enzymatic assay (malachite green, coupled to pyrophosphatase)
Format: biochemical
Settings: dGTP 100 μM, MTH1 6 nM; 96- or 384-well format; read-out: IC50
Method: MTH1 catalyzes the hydrolysis of dGTP to dGMP and PPi. By coupling the reaction to pyrophosphatase added in excess PPi is converted to Pi that can be detected by using the malachite green assay reagent. […] 96-well method: Briefly, the compound to be analyzed is diluted in DMSO in a 1:3 dilution series generating 12 different compound concentrations giving a final DMSO concentration of 1% in the assay well. MTH1 diluted in assay buffer (100 mM Tris-acetate, 40 mM NaCl, 10 mM magnesium acetate, 1 mM DTT and 0.005% Tween 20) fortified with E. coli pyrophosphatase (0.2 U/ml) is added to a final concentration of 6 nM. dGTP diluted in assay buffer is added to a final concentration of 100 μM. The reaction mixture is incubated for 15 minutes at 22° C. To 100 μl reaction mixture, 25 μl Malachite green assay regent (0.095% Malachite green in 17% H2SO4, 1.5% Ammonium molybdate, 0.17% Tween 20) is added, followed by incubation with shaking for 15 minutes at 22° C. The absorbance of the assay plate is read at 630 nm using a Hidex Sense Multilabel plate reader. The IC50 value is determined by fitting a dose response curve to the data points using nonlinear regression analysis and the equation Y=Bottom+(Top-Bottom)/(1+10^((Log IC50−X)*HillSlope)), where Y is the read absorbance at 630 nm and X is log [compound].
384-Well Method: The compounds to be tested are nano-dispensed, in 11 concentrations, directly in assay plates, with a final DMSO concentration <1%. The protocol and the reaction mixture are the same as for the 96-well assay, with a total reaction volume of 50 μl/well to which 10 μl of Malachite green reagent is added. All additions to the assay plates are made with multidrop.

## CNc1cc(-c2ccc(-c3ccccc3)cc2F)nc(N)n1 [Example 50, 6-(2-fluoro-4-phenylphenyl)-4-N-methylpyrimidine-2,4-diamine.]
  IC50: < 200 nM

## C=CCNc1cc(-c2ccc(Cl)cc2)nc(N)n1 [Example 53, 6-(4-chlorophenyl)-4-N-(prop-2-en-1-yl)pyrimidine-2,4-diamine]
  IC50: < 200 nM

## Nc1nc(NC2CCC2)cc(-c2ccc(Cl)cc2)n1 [Example 58, 6-(4-chlorophenyl)-4-N-cyclobutylpyrimidine-2,4-diamine]
  IC50: < 200 nM

## CCCCCNc1cc(-c2cccc(Cl)c2Cl)nc(N)n1 [Example 61, 6-(2,3-dichlorophenyl)-4-N-pentylpyrimidine-2,4-diamine]
  IC50: < 200 nM

## CC(C)(C)Nc1cc(-c2cccc(Cl)c2Cl)nc(N)n1 [Example 63, 4-N-tert-butyl-6-(2,3-dichlorophenyl)pyrimidine-2,4-diamine]
  IC50: < 200 nM

## CNc1cc(-c2ccc(Cl)c(Cl)c2)nc(N)n1 [Example 68, 6-(3,4-dichlorophenyl)-4-N-methylpyrimidine-2,4-diamine]
  IC50: < 200 nM

## CNc1cc(-c2ccc(C(C)(C)C)cc2)nc(N)n1 [Example 69, 6-(4-tert-butylphenyl)-4-N-methylpyrimidine-2,4-diamine]
  IC50: < 200 nM

## CNc1cc(-c2ccc(C)cc2)nc(N)n1 [Example 70, 4-N-methyl-6-(4-methylphenyl)pyrimidine-2,4-diamine]
  IC50: < 200 nM

## CNc1cc(-c2ccc(Cl)cc2Cl)nc(N)n1 [Example 71, 6-(2,4-dichlorophenyl)-4-N-methylpyrimidine-2,4-diamine]
  IC50: < 200 nM

## CNc1cc(-c2ccc(F)cc2F)nc(N)n1 [Example 75, 6-(2,4-difluorophenyl)-4-N-methylpyrimidine-2,4-diamine]
  IC50: < 200 nM

## CNc1cc(-c2cc(F)ccc2OC)nc(N)n1 [Example 76, 6-(5-fluoro-2-methoxyphenyl)-4-N-methylpyrimidine-2,4-diamine]
  IC50: < 200 nM

## CNc1cc(-c2ccc(OC)c(F)c2)nc(N)n1 [Example 82, 6-(3-fluoro-4-methoxyphenyl)-4-N-methylpyrimidine-2,4-diamine]
  IC50: < 200 nM

## CNc1cc(-c2ccc(F)c(F)c2)nc(N)n1 [Example 83, 6-(3,4-difluorophenyl)-4-N-methylpyrimidine-2,4-diamine]
  IC50: < 200 nM

## CNc1cc(-c2ccc(OC(C)C)cc2)nc(N)n1 [Example 84, 4-N-methyl-6-[4-(propan-2-yloxy)phenyl]pyrimidine-2,4-diamine]
  IC50: < 200 nM

## CNc1cc(-c2cccc(C)c2C)nc(N)n1 [Example 86, 6-(2,3-dimethylphenyl)-4-N-methylpyrimidine-2,4-diamine]
  IC50: < 200 nM

## CNc1cc(-c2ccc(Cl)c(F)c2)nc(N)n1 [Example 88, 6-(4-chloro-3-fluorophenyl)-4-N-methylpyrimidine-2,4-diamine]
  IC50: < 200 nM

## CNc1cc(-c2cccc(C(F)(F)F)c2Cl)nc(N)n1 [Example 91, 6-[2-chloro-3-(trifluoromethyl)phenyl]-4-N-methylpyrimidine-2,4-diamine]
  IC50: < 200 nM

## CNc1cc(-c2cccc(F)c2Cl)nc(N)n1 [Example 92, 6-(2-chloro-3-fluorophenyl)-4-N-methylpyrimidine-2,4-diamine]
  IC50: < 200 nM

## CNc1cc(-c2cccc(Cl)c2C)nc(N)n1 [Example 94, 6-(3-chloro-2-methylphenyl)-4-N-methylpyrimidine-2,4-diamine]
  IC50: < 200 nM

## CNc1cc(-c2cc(OC)cc(Cl)c2Cl)nc(N)n1 [Example 99, 6-(2,3-dichloro-5-methoxyphenyl)-4-N-methylpyrimidine-2,4-diamine]
  IC50: < 200 nM

## CNc1cc(-c2ccc(O)cc2)nc(N)n1 [Example 100, 4-[2-amino-6-(methylamino)pyrimidin-4-yl]phenol]
  IC50: < 200 nM

## CNc1cc(-c2ccc(C(=O)N3CCOCC3)c(Cl)c2)nc(N)n1 [Example 104, 6-[3-chloro-4-(morpholine-4-carbonyl)phenyl]-4-N-methylpyrimidine-2,4-diamine]
  IC50: < 200 nM

## CNc1cc(-c2ccc(/C=C/C(=O)OC)cc2)nc(N)n1 [Example 106, methyl (2E)-3-{4-[2-amino-6-(methylamino)pyrimidin-4-yl]phenyl}prop-2-enoate]
  IC50: < 200 nM

## CNc1cc(-c2cccc(/C=C/C(=O)OC)c2)nc(N)n1 [Example 107, methyl (2E)-3-{3-[2-amino-6-(methylamino)pyrimidin-4-yl]phenyl}prop-2-enoate]
  IC50: < 200 nM

## CNc1cc(-c2ccc(C(C)=O)cc2)nc(N)n1 [Example 109, 1-(4-(2-Amino-6-(methylamino)pyrimidin-4-yl)phenyl)ethanone]
  IC50: < 200 nM

## Cc1cccc(-c2cc(NC3CC3)nc(N)n2)c1C [Example 114, 4-N-cyclopropyl-6-(2,3-dimethylphenyl)pyrimidine-2,4-diamine]
  IC50: < 200 nM

## CNc1cc(-c2c[nH]c3ccccc23)nc(N)n1 [Example 116, 6-(1H-indol-3-yl)-4-N-methylpyrimidine-2,4-diamine]
  IC50: < 200 nM

## Cc1cccc(-c2cc(NCCc3ccccc3)nc(N)n2)c1C [Example 118, 6-(2,3-dimethylphenyl)-4-N-(2-phenylethyl)pyrimidine-2,4-diamine]
  IC50: < 200 nM

## Cc1cccc(-c2nc(N)nc3c2CCCN3)c1C [Example 121, 4-(2,3-dimethylphenyl)-5H,6H,7H,8H-pyrido[2,3-d]pyrimidin-2-amine]
  IC50: < 200 nM

## Nc1nc2c(c(-c3cccc(Cl)c3Cl)n1)CCCN2 [Example 122, 4-(2,3-dichlorophenyl)-5H,6H,7H,8H-pyrido[2,3-d]pyrimidin-2-amine]
  IC50: < 200 nM

## Nc1nc2c(c(-c3cn(S(=O)(=O)c4ccccc4)c4ccccc34)n1)CCCN2 [Example 123, 4-[1-(benzenesulfonyl)-1H-indol-3-yl]-5H,6H,7H,8H-pyrido[2,3-d]pyrimidin-2-amine]
  IC50: < 200 nM

## CNc1cc(-c2cc(F)cc(F)c2)nc(N)n1 [Example 124, 6-(3,5-difluorophenyl)-4-N-methylpyrimidine-2,4-diamine]
  IC50: < 200 nM

## COc1ccc(CCNc2cc(-c3cccc(C)c3C)nc(N)n2)cc1 [Example 125, 6-(2,3-dimethylphenyl)-4-N-[2-(4-methoxyphenyl)ethyl]pyrimidine-2,4-diamine]
  IC50: < 200 nM

## Cc1cccc(-c2cc(NCCc3ccc(Cl)cc3)nc(N)n2)c1C [Example 128, 4-N-[2-(4-chlorophenyl)ethyl]-6-(2,3-dimethylphenyl)pyrimidine-2,4-diamine]
  IC50: < 200 nM

## Cc1cccc(-c2cc(NCC(C)c3ccccc3)nc(N)n2)c1C (stereo not shown) [Example 130, 6-(2,3-dimethylphenyl)-4-N-(2-phenylpropyl)pyrimidine-2,4-diamine]
  IC50: < 200 nM

## Cc1cccc(-c2cc(NCCNc3ccccc3)nc(N)n2)c1C [Example 133, 6-(2,3-dimethylphenyl)-4-N-[2-(phenylamino)ethyl]pyrimidine-2,4-diamine]
  IC50: < 200 nM

## Cc1cccc(-c2cc(NCCc3c[nH]c4ccccc34)nc(N)n2)c1C [Example 134, 6-(2,3-dimethylphenyl)-4-N-[2-(1H-indol-3-yl)ethyl]pyrimidine-2,4-diamine]
  IC50: < 200 nM

## Cc1cccc(-c2cc(NCCN3CCNC3=O)nc(N)n2)c1C [Example 136, 1-(2-{[2-amino-6-(2,3-dimethylphenyl)pyrimidin-4-yl]amino}ethyl)imidazolidin-2-one]
  IC50: < 200 nM

## Cc1cccc(-c2cc(NCCCN3CCCC3=O)nc(N)n2)c1C [Example 137, 1-(3-{[2-amino-6-(2,3-dimethylphenyl)pyrimidin-4-yl]amino}propyl)pyrrolidin-2-one]
  IC50: < 200 nM

## CNc1cc(-c2cc(C)c(O)c(C)c2)nc(N)n1 [Example 138, 4-[2-amino-6-(methylamino)pyrimidin-4-yl]-2,6-dimethylphenol]
  IC50: < 200 nM

## CNc1cc(-c2ccc(O)c(OC)c2)nc(N)n1 [Example 139, 4-[2-amino-6-(methylamino)pyrimidin-4-yl]-2-methoxyphenol]
  IC50: < 200 nM

## CNc1cc(-c2ccc(O)c(F)c2)nc(N)n1 [Example 140, 4-[2-amino-6-(methylamino)pyrimidin-4-yl]-2-fluorophenol]
  IC50: < 200 nM

## CNc1cc(-c2ccccc2C)nc(N)n1 [Example 143, 4-N-methyl-6-(2-methylphenyl)pyrimidine-2,4-diamine]
  IC50: < 200 nM

## CNc1cc(-c2ccc3[nH]ncc3c2C)nc(N)n1 [Example 145, 4-N-methyl-6-(4-methyl-1H-indazol-5-yl)pyrimidine-2,4-diamine]
  IC50: < 200 nM

## CNc1cc(-c2cccc(C)c2)nc(N)n1 [Example 147, 4-N-methyl-6-(3-methylphenyl)pyrimidine-2,4-diamine]
  IC50: < 200 nM

## Cc1ccc(S(=O)(=O)n2cc(-c3cc(NC4CCC4)nc(N)n3)c3ccccc32)cc1 [Example 152, 4-N-cyclobutyl-6-[1-(4-methylbenzenesulfonyl)-1H-indol-3-yl]pyrimidine-2,4-diamine]
  IC50: < 200 nM
